Tests used:
ZEAMX (Corn, Field) = assay: Preemergence herbicidal evaluation; format: in vivo, Zea mays, L.; conditions: rated 4-5 weeks after treatment
[1] = test system: IPOHE (Ipomoea hederacea); assay: Postemergence herbicidal evaluation; format: in vivo, (L.) Jacq.; conditions: for IPOHE herbicidal rating: postemergence
In short: (§1)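 Seedlings grown about two weeks in flats, sprayed, then kept under standard greenhouse care. Rated visually 4–5 weeks after treatment on a 0–9 scale (stand, vigour, malformation, size, chlorosis, overall appearance) relative to untreated control; repeat tests averaged.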

SETVI (Setaria viridis) [2] = assay: Postemergence herbicidal evaluation; format: in vivo, (L.) Beau; conditions: for SETVI herbicidal rating: postemergence
In short: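 Visual injury score (0-9: stand, vigor, malformation, size, chlorosis, overall appearance vs untreated control) taken four to five weeks post-spray. Two-week-old seedlings received about 0.0040 to 1.000 kg/ha active compound in acetone/water with 0.5% TWEEN 20.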

CYPIR (Cyperus iria) = assay: Flooded paddy, preemergence weed control; format: in vivo; conditions: rated 3-4 weeks after treatment, 0-9 rating scale
In short: (§2)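 Preemergence, flooded: propagules planted at 0.5 cm depth in silt loam, water level maintained at 1.5 to 3 cm over soil, containers kept on greenhouse benches. Activity scored 0-9 by eye relative to a control plant.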

[3] = test system: GLXMAW (Soybean, Williams); assay: Preemergence herbicidal evaluation; format: in vivo, Glycine max, (L.) Merr. cv Williams; conditions: rated 4-5 weeks after treatment
[4] = test system: ECHORC (Echinochloa oryzoides); assay: Flooded paddy, preemergence weed control; format: in vivo, Echinochloa oryzoides (Ard.) Fritsch.; conditions: rated 3-4 weeks after treatment, 0-9 rating scale
In short: as §2

[5] = test system: ECHCG (Echinochloa crus-galli); assay: Preemergence herbicidal evaluation; format: in vivo, (L.) Beau; conditions: rated 4-5 weeks after treatment
In short: (§3)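 Seeds planted in potting soil cups and sprayed preemergence with aqueous acetone compound solution. Greenhouse-grown; rated 4–5 weeks after treatment on a 0-9 visual scale (stand, vigor, malformation, size, chlorosis, appearance) versus control.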

SETVI (Setaria viridis) [6] = assay: Preemergence herbicidal evaluation; format: in vivo, (L.) Beau; conditions: rated 4-5 weeks after treatment
In short: as §3

[7] = test system: TRZAWR (Wheat, Winter, cv Riband); assay: Postemergence herbicidal evaluation; format: in vivo, Triticum aestivum; conditions: for TRZAWR herbicidal rating: postemergence
In short: as §1

[8] = test system: MOOVA (Monochoria vaginalis); assay: Flooded paddy, preemergence weed control; format: in vivo, Presl.; conditions: rated 3-4 weeks after treatment, 0-9 rating scale
In short: as §2

Cn1c(C(F)(F)F)cc(=O)n(-c2ccc3snc(C(SCCO)SCCO)c3c2)c1=O [Compound 33, 1,2-benzisothiazole-3-carboxaldehyde, 5-[3,6-dihydro-3-methyl-2,6-dioxo-4-(trifluoromethyl)-1(2H)-pyrimidinyl]-, 3-[bis(2-hydroxyethyl)dithioacetal]]
ZEAMX preemergence herbicidal rating (ZEAMX (Corn, Field); Rate 0.0620 kg/ha): 0.0 | ZEAMX preemergence herbicidal rating (ZEAMX (Corn, Field); Rate 0.1250 kg/ha): 2.0 | ZEAMX preemergence herbicidal rating (ZEAMX (Corn, Field); Rate 0.2500 kg/ha): 2.0 | Postemergence herbicidal rating, IPOHE ([1]; rate 0.0320 kg/ha): 7.0 | Postemergence herbicidal rating, IPOHE ([1]; rate 0.0620 kg/ha): 9.0 | Postemergence herbicidal rating, SETVI (SETVI (Setaria viridis) [2]; rate 0.0320 kg/ha): 1.0 | Postemergence herbicidal rating, SETVI (SETVI (Setaria viridis) [2]; rate 0.0620 kg/ha): 4.0 | herbicidal rating, CYPIR (CYPIR (Cyperus iria); rate 0.0320 kg/ha): 0.0 | herbicidal rating, CYPIR (CYPIR (Cyperus iria); rate 0.1250 kg/ha): 3.0 | GLXMAW preemergence herbicidal rating ([3]; Rate 0.0620 kg/ha): 0.0 | GLXMAW preemergence herbicidal rating ([3]; Rate 0.1250 kg/ha): 1.0 | GLXMAW preemergence herbicidal rating ([3]; Rate 0.2500 kg/ha): 3.0 | herbicidal rating, ECHORC ([4]; rate 0.0320 kg/ha): 0.0 | herbicidal rating, ECHORC ([4]; rate 0.1250 kg/ha): 2.0 | ECHCG preemergence herbicidal rating ([5]; Rate 0.0620 kg/ha): 0.0 | ECHCG preemergence herbicidal rating ([5]; Rate 0.1250 kg/ha): 0.0 | ECHCG preemergence herbicidal rating ([5]; Rate 0.2500 kg/ha): 5.0 | SETVI preemergence herbicidal rating (SETVI (Setaria viridis) [6]; Rate 0.0620 kg/ha): 0.0 | SETVI preemergence herbicidal rating (SETVI (Setaria viridis) [6]; Rate 0.1250 kg/ha): 0.0 | SETVI preemergence herbicidal rating (SETVI (Setaria viridis) [6]; Rate 0.2500 kg/ha): 6.0 | Postemergence herbicidal rating, TRZAWR ([7]; rate 0.0320 kg/ha): 4.0 | Postemergence herbicidal rating, TRZAWR ([7]; rate 0.0620 kg/ha): 5.0 | herbicidal rating, MOOVA ([8]; rate 0.0320 kg/ha): 0.0 | herbicidal rating, MOOVA ([8]; rate 0.1250 kg/ha): 4.0

Cn1c(C(F)(F)F)cc(=O)n(-c2ccc3snc(C4OCCCS4)c3c2)c1=O (stereo not shown) [Compound 34, 1-methyl-3-[3-(1,3-oxathian-2-yl)-1,2-benzisothiazol-5-yl]-6-(trifluoromethyl)uracil]
ZEAMX preemergence herbicidal rating (ZEAMX (Corn, Field); Rate 0.0620 kg/ha): 5.0 | Preemergence herbicidal rating ZEAMX (ZEAMX (Corn, Field); Rate 0.0620 kg/ha): 4.5 | ZEAMX preemergence herbicidal rating (ZEAMX (Corn, Field); Rate 0.1250 kg/ha): 7.0 | Preemergence herbicidal rating ZEAMX (ZEAMX (Corn, Field); Rate 0.1250 kg/ha): 6.0 | ZEAMX preemergence herbicidal rating (ZEAMX (Corn, Field); Rate 0.2500 kg/ha): 9.0 | Preemergence herbicidal rating ZEAMX (ZEAMX (Corn, Field); Rate 0.2500 kg/ha): 6.5 | IPOHE herbicidal rating ([1]; rate 0.0320 kg/ha): 9.0 | IPOHE herbicidal rating ([1]; rate 0.0620 kg/ha): 9.0 | Postemergence herbicidal rating, IPOHE ([1]; rate 0.0320 kg/ha): 9.0 | Postemergence herbicidal rating, IPOHE ([1]; rate 0.0620 kg/ha): 9.0 | SETVI herbicidal rating (SETVI (Setaria viridis) [2]; rate 0.0320 kg/ha): 9.0 | SETVI herbicidal rating (SETVI (Setaria viridis) [2]; rate 0.0620 kg/ha): 9.0 | Postemergence herbicidal rating, SETVI (SETVI (Setaria viridis) [2]; rate 0.0320 kg/ha): 6.0 | Postemergence herbicidal rating, SETVI (SETVI (Setaria viridis) [2]; rate 0.0620 kg/ha): 8.0 | herbicidal rating, CYPIR (CYPIR (Cyperus iria); rate 0.0320 kg/ha): 9.0 | herbicidal rating, CYPIR (CYPIR (Cyperus iria); rate 0.0620 kg/ha): 7.0 | GLXMAW preemergence herbicidal rating ([3]; Rate 0.0620 kg/ha): 7.5 | Preemergence herbicidal rating GLXMAW ([3]; Rate 0.0620 kg/ha): 6.5 | GLXMAW preemergence herbicidal rating ([3]; Rate 0.1250 kg/ha): 9.0 | Preemergence herbicidal rating GLXMAW ([3]; Rate 0.1250 kg/ha): 7.0 | GLXMAW preemergence herbicidal rating ([3]; Rate 0.2500 kg/ha): 9.0 | Preemergence herbicidal rating GLXMAW ([3]; Rate 0.2500 kg/ha): 7.0 | herbicidal rating, ECHORC ([4]; rate 0.0320 kg/ha): 9.0 | herbicidal rating, ECHORC ([4]; rate 0.0620 kg/ha): 8.0 | herbicidal rating, ECHORC ([4]; rate 0.1250 kg/ha): 9.0 | ECHCG preemergence herbicidal rating ([5]; Rate 0.0620 kg/ha): 7.0 | Preemergence herbicidal rating ECHCG ([5]; Rate 0.0620 kg/ha): 9.0 | ECHCG preemergence herbicidal rating ([5]; Rate 0.1250 kg/ha): 8.0 | Preemergence herbicidal rating ECHCG ([5]; Rate 0.1250 kg/ha): 9.0 | ECHCG preemergence herbicidal rating ([5]; Rate 0.2500 kg/ha): 9.0 | Preemergence herbicidal rating ECHCG ([5]; Rate 0.2500 kg/ha): 9.0 | SETVI preemergence herbicidal rating (SETVI (Setaria viridis) [6]; Rate 0.0620 kg/ha): 9.0 | Preemergence herbicidal rating SETVI (SETVI (Setaria viridis) [6]; Rate 0.0620 kg/ha): 9.0 | SETVI preemergence herbicidal rating (SETVI (Setaria viridis) [6]; Rate 0.1250 kg/ha): 9.0 | Preemergence herbicidal rating SETVI (SETVI (Setaria viridis) [6]; Rate 0.1250 kg/ha): 9.0 | SETVI preemergence herbicidal rating (SETVI (Setaria viridis) [6]; Rate 0.2500 kg/ha): 9.0 | Preemergence herbicidal rating SETVI (SETVI (Setaria viridis) [6]; Rate 0.2500 kg/ha): 9.0 | TRZAWR herbicidal rating ([7]; rate 0.0320 kg/ha): 4.0 | TRZAWR herbicidal rating ([7]; rate 0.0620 kg/ha): 6.5 | Postemergence herbicidal rating, TRZAWR ([7]; rate 0.0320 kg/ha): 5.5 | Postemergence herbicidal rating, TRZAWR ([7]; rate 0.0620 kg/ha): 5.5 | herbicidal rating, MOOVA ([8]; rate 0.0320 kg/ha): 9.0 | herbicidal rating, MOOVA ([8]; rate 0.0620 kg/ha): 9.0 | herbicidal rating, MOOVA ([8]; rate 0.1250 kg/ha): 9.0

Cn1c(C(F)(F)F)cc(=O)n(-c2ccc3snc(C4OCC(C)(C)CO4)c3c2)c1=O [Compound 36, 3-[3(5,5-dimethyl-m-dioxan-2-yl)-1,2-benzisothiazol-5-yl]-1-methyl-6-(trifluoromethyl)uracil]
ZEAMX preemergence herbicidal rating (ZEAMX (Corn, Field); Rate 0.0620 kg/ha): 8.0 | ZEAMX preemergence herbicidal rating (ZEAMX (Corn, Field); Rate 0.1250 kg/ha): 8.0 | ZEAMX preemergence herbicidal rating (ZEAMX (Corn, Field); Rate 0.2500 kg/ha): 9.0 | Postemergence herbicidal rating, IPOHE ([1]; rate 0.0320 kg/ha): 9.0 | Postemergence herbicidal rating, IPOHE ([1]; rate 0.0620 kg/ha): 9.0 | Postemergence herbicidal rating, SETVI (SETVI (Setaria viridis) [2]; rate 0.0320 kg/ha): 4.0 | Postemergence herbicidal rating, SETVI (SETVI (Setaria viridis) [2]; rate 0.0620 kg/ha): 9.0 | herbicidal rating, CYPIR (CYPIR (Cyperus iria); rate 0.0080 kg/ha): 0.0 | herbicidal rating, CYPIR (CYPIR (Cyperus iria); rate 0.0320 kg/ha): 9.0 | herbicidal rating, CYPIR (CYPIR (Cyperus iria); rate 0.1250 kg/ha): 9.0 | GLXMAW preemergence herbicidal rating ([3]; Rate 0.0620 kg/ha): 8.0 | GLXMAW preemergence herbicidal rating ([3]; Rate 0.1250 kg/ha): 9.0 | GLXMAW preemergence herbicidal rating ([3]; Rate 0.2500 kg/ha): 9.0 | herbicidal rating, ECHORC ([4]; rate 0.0080 kg/ha): 5.0 | herbicidal rating, ECHORC ([4]; rate 0.0320 kg/ha): 8.5 | herbicidal rating, ECHORC ([4]; rate 0.1250 kg/ha): 9.0 | ECHCG preemergence herbicidal rating ([5]; Rate 0.0620 kg/ha): 9.0 | ECHCG preemergence herbicidal rating ([5]; Rate 0.1250 kg/ha): 9.0 | ECHCG preemergence herbicidal rating ([5]; Rate 0.2500 kg/ha): 9.0 | SETVI preemergence herbicidal rating (SETVI (Setaria viridis) [6]; Rate 0.0620 kg/ha): 9.0 | SETVI preemergence herbicidal rating (SETVI (Setaria viridis) [6]; Rate 0.1250 kg/ha): 9.0 | SETVI preemergence herbicidal rating (SETVI (Setaria viridis) [6]; Rate 0.2500 kg/ha): 9.0 | Postemergence herbicidal rating, TRZAWR ([7]; rate 0.0320 kg/ha): 4.0 | Postemergence herbicidal rating, TRZAWR ([7]; rate 0.0620 kg/ha): 4.5 | herbicidal rating, MOOVA ([8]; rate 0.0080 kg/ha): 9.0 | herbicidal rating, MOOVA ([8]; rate 0.0320 kg/ha): 9.0

From patent US6706663B2, “Herbicidal 3-heterocyclic substituted benzisothiazole and benzisoxazole compounds” (Wyeth, priority 2000, dated 2004)
